According to patent EP0409528A2, “Platinum triamine antitumor agents containing substituted anilines” (ENGELHARD CORPORATION, priority 1989, dated 1991):
Where “and” joins values, the source holds several entries; their conditions need not be identical. Equal values may be shown once.

Assays:
L1210 leukemia = test: L1210 antitumor screening; assay type: in vivo, female CDF1 mice
Method: (§1) All of the compounds of the Examples were tested against Sarcoma 180a in female CFW mice via single ip administration on Day 1. Two of the compounds were active in this system: cis -[Pt(NH3)2(4-iodoaniline)CI]N03 (maximum ILS = 81% at 20 mg/kg) and cis -[Pt(NH3)2(3-iodoaniline)Cl]NO3 (maximum ILS = 83% at 20 mg/kg). The remaining compounds were not active. cis -[Pt(NH3)2(4-iodoaniline)Cl]NO3 was also tested against L1210 leukemia in female CDF1 mice via single ip administration on Day 1.
L1210 screening was conducted according to a published method. See Rose, et al, Cancer Treat. Repts ., 1982 , 66 , 135, which is incorporated herein by reference. Female CDF, mice (16-22g) were implanted with 1 x 10^6 tumor cells ip on day zero. Compounds were administered in 0.5 mL of water ip on day one. Groups of 6 mice were used for each dose. A control group of mice received only tumor and 0.5 mL of water. A positive control group received tumor and 8 mg/kg cisplatin in 0.5 mL of 0.15 M NaCI. The test was terminated after three times the mean survival time (MST) of the control group. Surviving mice were counted as dying on that day. Activity was determined based on the percent increase in MST of test mice over controls (%ILS). An ILS of > 25% represents activity. The tumor line was maintained through weekly transfer of 5 x 10^4 cells in DBA/2 mice.

Sarcoma 180a = test: Sarcoma 180 ascites (S180a) antitumor screening; assay type: in vivo, female CFW mice; details: for %ILS: single ip on day 1, in water; for %ILS / activity against Sarcoma 180a: ILS > 50% indicates activity; for Surv: survivors per group of 6 mice; for maximum ILS: Sarcoma 180a, at 20 mg/kg; for maximum ILS / activity against Sarcoma 180a: single ip administration on Day 1; for activity against Sarcoma 180a: result in words
Method: as §1
Female CFW mice (18-25g) were implanted with 2 x 10^6 cells ip on day zero. Compounds were administered in 0.5 mL of water ip on day one. Groups of 6 mice were used for each test dose as well as controls as defined above. The test was run for twice the MST of the control group, with survivors counted as dying on that day. An ILS of > 50% indicates activity. The tumor line was maintained through weekly transfer of 4 x 10^6 cells in CFW mice.

[1] = S180a, dose 1.25 mg/kg ip day 1

SMILES	%ILS (Sarcoma 180a; S180a, dose 1.25 mg/kg) [%]	%ILS (Sarcoma 180a; S180a, dose 2.5 mg/kg) [%]	%ILS (Sarcoma 180a; S180a, dose 5 mg/kg) [%]	%ILS (Sarcoma 180a; S180a, dose 10 mg/kg) [%]	%ILS (Sarcoma 180a; S180a, dose 20 mg/kg) [%]	%ILS (Sarcoma 180a; S180a, dose 40 mg/kg) [%]	Surv (Sarcoma 180a; [1])	Surv (Sarcoma 180a; S180a, dose 2.5 mg/kg ip day 1)	Surv (Sarcoma 180a; S180a, dose 5 mg/kg ip day 1)	Surv (Sarcoma 180a; S180a, dose 10 mg/kg ip day 1)	Surv (Sarcoma 180a; S180a, dose 20 mg/kg ip day 1)	Surv (Sarcoma 180a; S180a, dose 40 mg/kg ip day 1)	maximum ILS (Sarcoma 180a) [%]	activity against Sarcoma 180a (Sarcoma 180a)	further results
[NH2][Pt]([NH2])([Cl])[Cl] [Positive Control, cisplatin, reference compound]															Positive Control SURV (L1210 leukemia; L1210, positive control group: 8 mg/kg cisplatin in 0.15 M NaCl ip day 1, survivors per 6 mice): 5/6; Positive Control %ILS (L1210 leukemia; L1210, positive control group: 8 mg/kg cisplatin in 0.5 mL of 0.15 M NaCl ip day 1): 190%; Positive Control SURV (Sarcoma 180a; S180a, positive control group: 8 mg/kg cisplatin in 0.15 M NaCl ip day 1, survivors per 6 mice): 4/6 and 5/6 and 6/6; Positive Control %ILS (Sarcoma 180a; S180a, positive control group: 8 mg/kg cisplatin in 0.5 mL of 0.15 M NaCl ip day 1): 92% and 95% and 98%
N.N.Nc1cccc(I)c1.O=[N+]([O-])[O-].[Cl-].[Pt+2] [cis-[Pt(NH3)2(3-iodoaniline)Cl]NO3]	-3	9	23	51	83	66	0/6	0/6	0/6	1/6	2/6	4/6	83	active	
N.N.Nc1ccc(Br)cc1.O=[N+]([O-])[O-].[Cl][Pt+] [cis-[Pt(NH3)2(4-bromoaniline)Cl]NO3]	2	7	38	44	-14	-74	0/6	0/6	0/6	1/6	2/6	0/6			
N.N.Nc1ccc(Cl)cc1.O=[N+]([O-])[O-].[Cl][Pt+] [cis-[Pt(NH3)2(4-chloroaniline)Cl]NO3]	3	9	40	44	-51	-77	0/6	0/6	0/6	0/6	0/6	0/6			
N.N.Nc1ccc(F)cc1.O=[N+]([O-])[O-].[Cl-].[Pt+2] [cis-[Pt(NH3)2(4-fluoroaniline)Cl]NO3, cis-[Pt(NH3)2(4-fluoraniline)Cl]NO3]	6	14	27	45	-48	-77	0/6	0/6	0/6	0/6	1/6	0/6			
N.N.Nc1ccc(I)cc1.O=[N+]([O-])[O-].[Cl-].[Pt+2] [cis-[Pt(NH3)2(4-iodoaniline)Cl]NO3, cis-(Pt(NH3)2(4-iodoaniline)Cl]NO3]	-1	22	38	39	81		0/6	0/6	0/6	0/6	2/6		81	active	%ILS (L1210 leukemia; L1210, dose 1.25 mg/kg, single ip on day 1, ILS > 25% represents activity): 14%; Surv (L1210 leukemia; L1210, survivors per group of 6 mice, dose 1.25 mg/kg ip day 1): 0/6; maximum ILS (L1210 leukemia; L1210 leukemia, at 10 mg/kg, single ip administration on Day 1): 37%; activity against L1210 leukemia (L1210 leukemia; result in words, single ip administration on Day 1, ILS > 25% represents activity): moderate level of activity; %ILS (Sarcoma 180a; S180a, dose 0.63 mg/kg): 12%; Surv (Sarcoma 180a; S180a, dose 0.63 mg/kg ip day 1): 0/6
